Measurements: ChEMBL document CHEMBL3885861, “Open TG-GATES”

Species on record: Rattus norvegicus
Assay: Open TG-GATES - Regimen: Single
Format: toxicity, organism-based, Sprague-Dawley
Parameters: regimen Single, gender Male, age 6 weeks
Details: in vivo, po, route gavage; for Bas / Eos / Fbg / Hb / Ht / Lym / MCHC / MCV / Mono / Neu / RBC / Ret / WBC / Plat: tissue Blood; for KIDNEY_TOTAL: tissue Kidney; for LIVER: tissue Liver; for ALT / AST / BUN / CRE / Ca / Cl / DBIL / GLC / IP / K / LDH / Na / PL / RALB / TBIL / TC / TP / gamma-GTP: tissue Plasma
[1] = 0 mg/kg, 3 h, dose level Control
[2] = 0 mg/kg, 6 h, dose level Control
[3] = 0 mg/kg, 9 h, dose level Control
[4] = 0 mg/kg, 24 h, dose level Control

What does the source list for `C[C@@H]1C[C@H]2[C@@H]3CCC4=CC(=O)C=C[C@]4(C)[C@@]3(F)[C@@H](O)C[C@]2(C)[C@@]1(O)C(=O)CO` [DEXAMETHASONE]?
TERMINAL_BW [1]: 213.8 g; Bas [1]: 0%; Eos [1]: 1%; Fbg [1]: 235.6 mg/dL; Hb [1]: 13 g/dL; Ht [1]: 39.6%; Lym [1]: 74.6%; MCHC [1]: 32.7%; MCV [1]: 64.5 fL; Mono [1]: 7%; Neu [1]: 18%; RBC [1]: 615 x10_4/ul; Ret [1]: 8.3%; WBC [1]: 98.2 x10_2/uL; KIDNEY_TOTAL [1]: 0.6 g; LIVER [1]: 10.5 g; ALT [1]: 38.4 IU/L; AST [1]: 70.4 IU/L; BUN [1]: 11.2 mg/dL; CRE [1]: 0.4 mg/dL; Ca [1]: 10.9 mg/dL; Cl [1]: 103.4 meq/L; DBIL [1]: 0.012 mg/dL; GLC [1]: 193.2 mg/dL; IP [1]: 9.8 mg/dL; K [1]: 4.1 meq/L; LDH [1]: 79.4 IU/L; Na [1]: 140.8 meq/L; PL [1]: 140.6 mg/dL; RALB [1]: 3.7 g/dL; TBIL [1]: 0.044 mg/dL; TC [1]: 79 mg/dL; TP [1]: 5.3 g/dL; gamma-GTP [1]: 0.8 IU/L; TERMINAL_BW [2]: 209.7 g; Bas [2]: 0%; Eos [2]: 0.6%; Fbg [2]: 234.6 mg/dL; Hb [2]: 13.3 g/dL; Ht [2]: 40.4%; Lym [2]: 80.6%; MCHC [2]: 32.9%; MCV [2]: 64.6 fL; Mono [2]: 4.4%; Plat [2]: 118.9 x10_4/uL; RBC [2]: 627.4 x10_4/ul; Ret [2]: 7.5%; WBC [2]: 103.8 x10_2/uL; KIDNEY_TOTAL [2]: 0.7 g; LIVER [2]: 9.7 g; ALT [2]: 34.2 IU/L; AST [2]: 65.2 IU/L; BUN [2]: 10.2 mg/dL; CRE [2]: 0.4 mg/dL; Ca [2]: 11 mg/dL; Cl [2]: 103.8 meq/L; DBIL [2]: 0.014 mg/dL; GLC [2]: 164.8 mg/dL; IP [2]: 9.5 mg/dL; K [2]: 4.3 meq/L; LDH [2]: 74.2 IU/L; Na [2]: 140.2 meq/L; PL [2]: 149.6 mg/dL; RALB [2]: 3.9 g/dL; TBIL [2]: 0.06 mg/dL; TC [2]: 84.8 mg/dL; TP [2]: 5.6 g/dL; gamma-GTP [2]: 0 IU/L; TERMINAL_BW [3]: 215.1 g; Bas [3]: 0%; Eos [3]: 1%; Fbg [3]: 233.2 mg/dL; Hb [3]: 13.2 g/dL; Ht [3]: 39.9%; Lym [3]: 73.2%; MCHC [3]: 33%; MCV [3]: 63.7 fL; Mono [3]: 7%; Neu [3]: 19%; Plat [3]: 125.1 x10_4/uL; RBC [3]: 626.8 x10_4/ul; Ret [3]: 7.8%; WBC [3]: 104.7 x10_2/uL; KIDNEY_TOTAL [3]: 0.7 g; LIVER [3]: 9.4 g; ALT [3]: 30.6 IU/L; AST [3]: 59.4 IU/L; BUN [3]: 11 mg/dL; CRE [3]: 0.3 mg/dL; Ca [3]: 10.5 mg/dL; Cl [3]: 104 meq/L; DBIL [3]: 0.01 mg/dL; GLC [3]: 171.4 mg/dL; IP [3]: 10.1 mg/dL; K [3]: 4.4 meq/L; LDH [3]: 80.4 IU/L; Na [3]: 140.8 meq/L; PL [3]: 141.8 mg/dL; RALB [3]: 3.8 g/dL; TBIL [3]: 0.046 mg/dL; TC [3]: 82.8 mg/dL; TP [3]: 5.5 g/dL; gamma-GTP [3]: 0.8 IU/L; TERMINAL_BW [4]: 229.3 g; Bas [4]: 0%; Eos [4]: 1%; Fbg [4]: 239.6 mg/dL; Hb [4]: 13.2 g/dL; Ht [4]: 40.1%; Lym [4]: 73.4%; MCHC [4]: 33%; MCV [4]: 65.6 fL; Mono [4]: 10.2%; Neu [4]: 15.6%; Plat [4]: 124.7 x10_4/uL; RBC [4]: 611.2 x10_4/ul; Ret [4]: 7.6%; WBC [4]: 107 x10_2/uL; KIDNEY_TOTAL [4]: 0.7 g; LIVER [4]: 11.3 g; ALT [4]: 40.6 IU/L; AST [4]: 67.2 IU/L; BUN [4]: 15.8 mg/dL; CRE [4]: 0.4 mg/dL; Ca [4]: 10.9 mg/dL; Cl [4]: 103 meq/L; DBIL [4]: 0.014 mg/dL; GLC [4]: 192.6 mg/dL; IP [4]: 8 mg/dL; K [4]: 4.4 meq/L; LDH [4]: 89.8 IU/L; Na [4]: 140 meq/L; PL [4]: 172.2 mg/dL; RALB [4]: 3.9 g/dL; TBIL [4]: 0.04 mg/dL; TC [4]: 95.4 mg/dL; TP [4]: 5.7 g/dL; gamma-GTP [4]: 0 IU/L; TERMINAL_BW (1 mg/kg, 3 h, dose level Low): 220.4 g
